# Data taken from patent US20100311107A1, “Ultra-High Throughput Screening of Natural Products” (priority 2004, published 2010).
# Like-named read-outs stand apart in the source and are kept apart here. Numbered stars: 1 amine (or outer) side, 2 acyl side, 3 side chain; on linkers, the order of the positions; unused ones are H or OH. Bridge positions count the residues as written; N and C are the ends. Square brackets hold non-standard residues; d marks the D form. Peptide text beside a SMILES is read from it. I, II: the chains in the order shown. Actinocin(9to1) = Cc1c2oc3c(C)ccc(C(=O)[*:1])c3nc-2c(C(=O)[*:2])c(N)c1=O; NMeV = CN[C@H](C(=O)O)C(C)C; Sar = CNCC(=O)O
# Experiments:
# Assay type in all cases: cell-based, Escherichia coli
# [1] = system: lacZ reporter gene of the screening strains (CM191, CM242); experiment: S-Gal staining assay on solid medium; details: CM242, S-Gal staining
# From the text: The screening strains' responses to DNA damaging agents were further confirmed by S-Gal staining assay. When mitomycin C and streptonigrin (both were well-known DNA damaging drugs) and S-Gal, the indicator, were applied to the screening strains growing on solid medium, blue-colored rings were visible around colonies in drug-impregnated disks. […] Actinomycin D was an exception. CM242 was not sensitive to this drug, although it disrupts DNA structure. PETG (2-phenyethyl B-D-thiogalactoside, Sigma, St Louis Mo.), was used in this experiment to suppress unspecific background activity.
# [2] = system: E. coli screening strain DR1234; design: unit not given here
# Protocol: (§1) The screening strain, DR1234, was established after all desired drug-resistant genes listed in Table 5 had been delivered into the parent E. coli strain, MG1655, by methods described above. Its level of drug resistance was analyzed by the standard minimum inhibitory concentration (MIC) assay in MHB liquid medium (Chantot, et al., 1986, “Antibacterial activity of roxithromycin: a laboratory evaluation,” J. Antibiot, 39(5):660-8) and the result was summarized in Table 7.
# [3] = system: E. coli screening strain CM435; design: Minimal inhibitory concentrations (MIC90) CM435: unit not given here; details: for Minimal inhibitory concentrations (MIC90) CM435: Table 13, MHB medium
# E. coli MG1655 = system: E. coli MG1655; design: unit not given here
# Protocol: as §1
# (§2) The level of drug resistance of CM166 was estimated by MIC assay carried out in MHB liquid medium and the results were summarized in Table 9. CM166 is resistant to antibacterial agents whose resistant genes have been incorporated into the strain, but not to other antibacterial drugs whose resistant genes are not incorporated.
# (§3) The level of drug-resistance of screening strain DR1212 was analyzed by standard MIC assay in MHB liquid medium and the result was summarized in Table 11. Similar to screening strains, DR1234 and CM166, DR1212 is also resistant to drugs whose resistant genes have been introduced.
# (§4) The level of drug resistance of these screening strains (both intermediates and finals) was evaluated by standard MIC assay in MHB liquid medium and the result of Strain CM242 is summarized in Table 12.
# (§5) The level of drug resistance of screening strains CM400 and CM435 was evaluated by standard MIC assay in MHB liquid medium and the results are summarized in Table 13. According to the MIC results, CM435 is hypersensitive to Bleomycin, Daunorucibin, Coumermycin A1 and Erythromycin. Screening strain CM435 and others, which are hypersensitive to certain types of antimicrobial agents, are advantageous in detecting bioactive compounds with low concentration in the screening system.
# [4] = system: E. coli screening strain CM242; design: unit not given here; details: second Table 12, MHB medium
# Protocol: as §4
# [5] = system: E. coli screening strain CM400; design: unit not given here; details: Table 13, MHB medium
# Protocol: as §5
# [6] = system: E. coli screening strain DR1212; design: unit not given here
# Protocol: as §3
# [7] = system: E. coli screening strain CM166; design: unit not given here; details: Table 9, MHB medium
# From the text: as §2
# [8] = system: BW25113 strain containing drug-resistant genes inserted into the bioA locus; experiment: drug resistance characterization of strain with Tn7 cassette in bioA locus; details: for resistance conferred: native sat promoter, streptothricin at 5 ug/ml, spectinomycin at 100 ug/ml; for resistance of strains having the promoter substitute: sat promoter replaced by Ptrc
# From the text: Therefore, a functional copy was introduced by homologous recombination as described hereafter. The drug-resistant gene of interest was synthesized in vitro using PCR with oligonucleotide primers that contained homologous sequences to the target genes and an additional ˜50 by homologous to a particular chromosomal site of the recipient strain. For instance, to insert the Tn7-associated resistance gene cassette dhfrI-sat-aadA into the bioA gene locus of the recipient strain, the primers listed in Table 6 were used. The capitalized portions of these primers hybridized to Tn7 template DNA upstream and downstream of the resistance gene cassette and allowed PCR amplification of the target fragment (Roche (Mannheim, Germany) Long Template PCR System). The ˜50 by additional sequence of these oligonucleotides (low case) afforded regions of homology with the chromosomal target site of the recipient, in this instance, the bioA gene locus (Table 6). The PCR product of the above reaction was introduced into a specialized strain, BW25113 (obtained from the E. coli Genetic Stock Center, strain # 7739) by standard electroporation following the manufacturer's instruction of BioRad (Hercules, Calif.) Gene Pulser, model #1652076, for standard electroporation of E. coli. Double-crossover homologous recombination, mediated by the bacteriophage lambda Red recombinase present in the strains pKD46 [#7630], pKD78 [#7989] or pKD119 [#7990], occurred between the “bioA” locus of the recipient strain and the PCR products via their homologous regions designed in the PCR primers as described above, resulting in the insertion of the drug resistance cassette into the bioA locus of the chromosome (FIG. 3, item 315). […] Once verified by drug resistance characterization and diagnostic PCR assay (see above), the drug resistance-encoding locus from the BW25113/pKD46 strain was introduced into the same locus of the recipient screening strain by standard P1 transduction as described above, also see FIG. 3, item 310.
# To increase the gene expression level, the T7 promoter was used to replace the weak promoter of sat gene.
Compound,sensitivity of CM242 reporter to the drug [1],"Minimal inhibitory concentrations (MIC90) DR1234 ([2]; Table 7, MHB medium)",Minimal inhibitory concentrations (MIC90) CM435 [3],"Minimal inhibitory concentrations (MIC90) MG1655 (E. coli MG1655; Table 7, MHB medium)","Minimal inhibitory concentrations (MIC90) MG1655 (E. coli MG1655; Table 9, MHB medium)","Minimal inhibitory concentrations (MIC90) MG1655 (E. coli MG1655; Table 11, MHB medium)","Minimal inhibitory concentrations (MIC90) MG1655 (E. coli MG1655; Table 13, MHB medium)","Minimal inhibitory concentrations (MIC90) MG1655 (E. coli MG1655; second Table 12, MHB medium)",Minimal inhibitory concentrations (MIC90) CM242 [4],Minimal inhibitory concentrations (MIC90) CM400 [5],"Minimal inhibitory concentrations (MIC90) DR1212 ([6]; Table 11, MHB medium)",Minimal inhibitory concentrations (MIC90) CM166 [7],resistance conferred [8],resistance of strains having the promoter substitute [8],Minimal inhibitory concentrations (MIC90) DR1234 [2],Minimal inhibitory concentrations (MIC90) DR1212 [6],sensitivity of CM435 according to the MIC results ([3]; MHB liquid medium)
"Cc1c2oc3c(C)ccc(C(=O)N[C@@H]4C(=O)N[C@H](C(C)C)C(=O)N5CCC[C@H]5C(=O)N(C)CC(=O)N(C)[C@@H](C(C)C)C(=O)O[C@@H]4C)c3nc-2c(C(=O)N[C@@H]2C(=O)N[C@H](C(C)C)C(=O)N3CCC[C@H]3C(=O)N(C)CC(=O)N(C)[C@@H](C(C)C)C(=O)O[C@@H]2C)c(N)c1=O [Actinomycin D] (I: T[dV]P[Sar][NMeV] / II: T[dV]P[Sar][NMeV]; ester I:1-I:C, II:1-II:C; linker I:N-II:N via Actinocin(9to1))",not sensitive,100,256,200,200,200,256,200,200,256,50.0,50,,,,,
CN[C@@H]1[C@H](O)[C@H](NC)[C@H]2O[C@@]3(O)C(=O)C[C@@H](C)O[C@H]3O[C@@H]2[C@H]1O [Spectinomycin],,>400,>64,6.3-12.5,6.3-12.5,6.3-12.5,16,6.3-12.5,>400,>64,>400,>400,not,resistant,,,
[H]/N=C(/N)N[C@H]1[C@H](O)[C@@H](O)[C@H](O[C@@H]2O[C@@H](C)[C@](O)(C=O)[C@H]2O[C@@H]2O[C@@H](CO)[C@H](O)[C@@H](O)[C@@H]2NC)[C@@H](N/C(N)=N\[H])[C@@H]1O [Streptomycin],,>400,>64,3.2,3.2,3.2,4,3.2,>400,>64,>400,>400,,,,,
CN(C)[C@@H]1C(O)=C(C(N)=O)C(=O)[C@@]2(O)C(O)=C3C(=O)c4c(O)cccc4[C@@](C)(O)[C@H]3C[C@@H]12 [Tetracycline],,,64,0.4-3.2,0.4-3.2,0.4-3.2,2,0.4-3.2,>400,>64,,100,,,100,100,
Actinomycin C,,100,>256,50,50,50,256,50,200,>256,25.0,50,,,,,
Bleomycin,,0.8,8,≦0.2-0.4,≦0.2-0.4,≦0.2-0.4,2,≦0.2-0.4,200,>64,≦0.4,400,,,,,hypersensitive
Gentamicin,,400,>64,0.8,0.8,0.8,1,0.8,100,>64,200,>400,,,,,
Neomycin,,100,8,0.8,0.8,0.8,2,0.8,50,16,25,25,,,,,
Streptothricin,,400,64,0.4-1.6,0.4-1.6,0.4-1.6,2,0.4-1.6,>400,>64,200,400,not,resistant,,,
